In data set [1] the target is Bromodomain-containing protein 4 (Homo sapiens, UniProt O60885, Y97A). Put plainly: Inhibition of 6His-Thr-BRD4 (1 to 477 residues) BD1 Y97A mutant (unknown origin) incubated for 30 mins by TR-FRET assay. (In general: TR-FRET usually uses a lanthanide donor and a delayed reading to cut background.)
Data set [2] has as its target Bromodomain-containing protein 4 (Homo sapiens, UniProt O60885, Y390A). Nature of the data set: Inhibition of 6His-Thr-BRD4 (1 to 477 residues) BD2 domain Y390A mutant (unknown origin) incubated for 30 mins by TR-FRET assay.
The species named for another data set is Homo sapiens. Nature of the data set: Selectivity index, ratio of pIC50 of BRD4 BD1 (unknown origin) to pIC50 of BRD4 BD2 (unknown origin).
Data set [3] is described as follows: Solubility of compound by CLND assay. The class given is physicochemical.
Data set [4] is described as follows: Permeability of compound. As to conditions: not told; read-out: permeability. The class given is ADME.

Structures are written as SMILES. Values after ≈ are worked out from the molar mass of the structure shown.

The IC50 is the point on the concentration scale where inhibition reaches its midpoint. Read a high IC50 as a need for much substance. For orientation: solubility (kinetic) means solubility judged after dilution from a stock solution rather than from solid. As for `Cn1cc(-c2cc(C(=O)NCC3CCOCC3)cc(Cc3ccccc3)n2)nn1`, the IC50 is greater than 50.1 µM in data set [1] and 0.316 µM in data set [2]. Further, in the data set listed under Homo sapiens, the Ratio pIC50 is greater than 160. This molecule registered a solubility (kinetic) in data set [3] of no less than 142 µg/mL. The Papp in data set [4] was found to be 22 ×10⁻⁶ cm/s.
With `Cn1cc(-c2cc(C(=O)NCC[C@H]3CNCCO3)cc(Cc3ccccc3)n2)nn1`, the IC50 in data set [1] is 15.8 µM; in data set [2], 0.0631 µM. Further, in the data set listed under Homo sapiens, the Ratio pIC50 was 250. This molecule also had a kinetic solubility in data set [3] of no less than 189 µg/mL. For the same molecule, the Papp in data set [4] turned out to be 4.8 ×10⁻⁶ cm/s.
Turning to `CCNC(=O)c1cc(Cc2ccccc2)nc(-c2cn(C)nn2)c1`, the IC50 in data set [2] is 0.1 µM. Further, the Ratio pIC50 in the data set filed under Homo sapiens turned out to be 170. In data set [3], this molecule displayed a solubility (kinetic) of no less than 157 µg/mL. In data set [4], the Papp was determined as 32.5 ×10⁻⁶ cm/s.
As for `Cc1nnc(-c2ccccc2OCc2ccccc2)o1`, the values for the IC50 in data set [1] and in data set [2] were greater than 50.1 µM and 12.6 µM, respectively. Besides, the Ratio pIC50 in the data set filed under Homo sapiens is greater than 4. Also, the solubility (kinetic) in data set [3] is no less than 252 µg/mL.
With `CCNC(=O)c1ccc(OCc2ncccn2)c(-c2cn(C)nn2)c1`, the IC50 in data set [1] was greater than 50.1 µM; in data set [2], 1.58 µM. Besides, the Ratio pIC50 in the data set listed under Homo sapiens was greater than 30. Besides, the solubility (kinetic) in data set [3] was no less than 103 µg/mL. Moreover, in data set [4], the Papp came out at 3.7 ×10⁻⁶ cm/s.
Turning to `C[C@H](Oc1ccc(C(=O)NC2CCOCC2)cc1-c1cn(C)nn1)c1ccccn1`, the results for the IC50 in data set [1] and in data set [2] were 15.8 µM and 0.126 µM, respectively. Moreover, the Ratio pIC50 in the data set listed under Homo sapiens was 100. In data set [3], this molecule gave a kinetic solubility of no less than 194 µg/mL. The Papp in data set [4] amounted to 5.9 ×10⁻⁶ cm/s.
For `C[C@H](Oc1ccc(C(=O)N[C@H]2CC[C@H](O)CC2)cc1-c1cn(C)nn1)c1ccccn1`, in that order: 7.94 µM, 0.398 µM, 20, no less than 188 µg/mL and 1.3 ×10⁻⁶ cm/s.
Consider `Cn1cc(-c2cc(C(=O)NCCC[C@@]3(F)CCCNC3)cc(Cc3ccccc3)n2)nn1`, for which the IC50 in data set [1] is 5.01 µM; in data set [2] it was 0.01 µM. The Ratio pIC50 in the data set listed under Homo sapiens is 500. Further, in data set [3], the solubility (kinetic) was no less than 172 µg/mL. Besides, in data set [4], the Papp was determined as 2.3 ×10⁻⁶ cm/s.
For the molecule `C[C@H](Oc1ccc(C(=O)NCCC[C@@]2(F)CCCNC2)cc1-c1cn(C)nn1)c1ccccn1`, the half-inhibitory concentration (IC50) is 3.98 µM in data set [1] and 0.01 µM in data set [2]. Further, the Ratio pIC50 in the data set listed under Homo sapiens was found to be 400. This molecule displayed a solubility (kinetic) in data set [3] of no less than 193 µg/mL. Also, the Papp in data set [4] worked out at 0.53 ×10⁻⁶ cm/s.
As to `CCNC(=O)c1ccc(OCc2ccncc2)c(-c2cn(C)nn2)c1`, the IC50 in data set [1] is 12.6 µM; in data set [2], 1 µM. In the data set filed under Homo sapiens, the Ratio pIC50 is 15. The molecule also displayed a solubility (kinetic) in data set [3] of no less than 115 µg/mL. The Papp in data set [4] stood at 30 ×10⁻⁶ cm/s.
In data set [2], `Cn1cc(-c2cc(C(=O)NC3CC3)cc(Cc3ccccc3)n2)nn1` gave an IC50 of 0.126 µM. Further, in the data set listed under Homo sapiens, the Ratio pIC50 is 125. In data set [3], this molecule returned a solubility (kinetic) of no less than 76 µg/mL. Moreover, the Papp in data set [4] was 36 ×10⁻⁶ cm/s.
On to `CCNC(=O)c1ccc(OCCc2ccccc2)c(-c2cn(C)nn2)c1`, for which the 50% inhibitory concentration (IC50) was greater than 50.1 µM in data set [1] and 2.51 µM in data set [2]. Also, the Ratio pIC50 in the data set filed under Homo sapiens is greater than 20. Moreover, the kinetic solubility in data set [3] worked out at 95 µg/mL (≈ 271 µM). In addition, in data set [4], the Papp was found to be 49 ×10⁻⁶ cm/s.
`CNC(=O)c1cc(C(=O)NC2CC2)cn(Cc2ccccc2)c1=O` [GSK620] registered a kinetic solubility in data set [3] of no less than 154 µg/mL. Further, in data set [4], the Papp was found to be 20 ×10⁻⁶ cm/s.
As for `CCNC(=O)c1ccc(OCc2ccccc2OC)c(-c2cn(C)nn2)c1`, the values for the IC50 in data set [1] and in data set [2] were 20 µM and 0.126 µM, respectively. Besides, in the data set filed under Homo sapiens, the Ratio pIC50 was determined as 160. For the same molecule, the kinetic solubility in data set [3] is no less than 162 µg/mL. The Papp in data set [4] is 48 ×10⁻⁶ cm/s.
Consider `CCNC(=O)c1cc(Cc2cccc(OC)c2)nc(-c2cn(C)nn2)c1`, for which the IC50 in data set [1] was greater than 50.1 µM; in data set [2], 0.631 µM. Moreover, the Ratio pIC50 in the data set filed under Homo sapiens is greater than 80. This molecule registered a solubility (kinetic) in data set [3] of no less than 45 µg/mL. Besides, the Papp in data set [4] came out at 47 ×10⁻⁶ cm/s.
On the same counts, the results for `CNC(=O)c1ccc(O[C@@H](C)c2ccccn2)c(-c2cn(C)nn2)c1` are 10 µM, 0.126 µM, 80, no less than 138 µg/mL and 7 ×10⁻⁶ cm/s.
For the molecule `Cc1cc(-c2ccccc2OCc2ccccc2)on1`, the IC50 in data set [1] is 10 µM; in data set [2], 3.98 µM. Moreover, the Ratio pIC50 in the data set listed under Homo sapiens turned out to be 3. The kinetic solubility in data set [3] was found to be 1 µg/mL (≈ 3.77 µM).
On to `Cn1cc(-c2cc(C(=O)NCCCC3CCNCC3)cc(Cc3ccccc3)n2)nn1`, for which the figures for the IC50 in data set [1] and in data set [2] were 10 µM and 0.0251 µM, respectively. Besides, in the data set filed under Homo sapiens, the Ratio pIC50 amounted to 400. This molecule had a solubility (kinetic) in data set [3] of no less than 134 µg/mL. Moreover, in data set [4], the Papp is less than 0.3 ×10⁻⁶ cm/s.
For `CCNC(=O)c1ccc(OCc2ccccn2)c(-c2cn(C)nn2)c1`, in that order: 39.8 µM, 0.316 µM, 125, 114 µg/mL (≈ 338 µM) and 14 ×10⁻⁶ cm/s.
On the same counts, the results for `Cn1cc(-c2cc(C(N)=O)cc(Cc3ccccc3)n2)nn1` are 12.6 µM, 0.251 µM, 50, 40 µg/mL (≈ 136 µM) and 14 ×10⁻⁶ cm/s.
For `CCNC(=O)c1ccc(O[C@@H](C)c2ccccn2)c(-c2cn(C)nn2)c1`, in that order: 7.94 µM, 0.0794 µM, 100, no less than 127 µg/mL and 15 ×10⁻⁶ cm/s.
As to `Cc1cn(-c2ccccc2OCc2ccccc2)nn1`, the figures for the IC50 in data set [1] and in data set [2] were 31.6 µM and 15.8 µM, respectively. Besides, the Ratio pIC50 in the data set filed under Homo sapiens came to 2. Also, the solubility (kinetic) in data set [3] is 96 µg/mL (≈ 362 µM).
Regarding `Cn1cc(-c2cc(C(=O)NC3CCOCC3)cc(Cc3ccccc3)n2)nn1`, the IC50 in data set [1] was 20 µM; in data set [2], 0.126 µM. Moreover, in the data set listed under Homo sapiens, the Ratio pIC50 was found to be 160. The molecule further gave a kinetic solubility in data set [3] of no less than 141 µg/mL. Also, in data set [4], the Papp came out at 27 ×10⁻⁶ cm/s.
Molecule `CC(=O)Nc1ccccc1OCc1ccccc1` registered a kinetic solubility in data set [3] of no less than 113 µg/mL.
`Cn1cc(-c2cc(C(=O)N[C@H]3[C@@H]4COC[C@@H]43)cc(Cc3ccccc3)n2)nn1`: the figures for the IC50 in data set [1] and in data set [2] were 5.01 µM and 0.0501 µM, respectively. The Ratio pIC50 in the data set filed under Homo sapiens is 100. The molecule further displayed a kinetic solubility in data set [3] of no less than 145 µg/mL. Further, in data set [4], the Papp came out at 24 ×10⁻⁶ cm/s.
Turning to `CCNC(=O)c1cc(Cc2ccccc2OC)nc(-c2cn(C)nn2)c1`, the IC50 was 39.8 µM in data set [1] and 0.2 µM in data set [2]. In addition, the Ratio pIC50 in the data set listed under Homo sapiens was 200. In data set [3], this molecule showed a solubility (kinetic) of 62 µg/mL (≈ 176 µM). For the same molecule, the Papp in data set [4] worked out at 37 ×10⁻⁶ cm/s.
In the case of `CCNC(=O)c1cc(Cc2cccc(F)c2)nc(-c2cn(C)nn2)c1`, the values for the half-inhibitory concentration (IC50) in data set [1] and in data set [2] were 15.8 µM and 0.251 µM, respectively. Besides, in the data set filed under Homo sapiens, the Ratio pIC50 is 65. This molecule yielded a solubility (kinetic) in data set [3] of 73 µg/mL (≈ 215 µM). For the same molecule, the Papp in data set [4] turned out to be 41 ×10⁻⁶ cm/s.
Regarding `Cn1cc(-c2ccccc2OCc2ccccc2)nn1`, the values for the half-inhibitory concentration (IC50) in data set [1] and in data set [2] were 20 µM and 3.98 µM, respectively. The Ratio pIC50 in the data set filed under Homo sapiens amounted to 5. The molecule further returned a kinetic solubility in data set [3] of 87 µg/mL (≈ 328 µM).
In data set [3], `CCNC(=O)c1ccc(OCC2CCOCC2)c(-c2cn(C)nn2)c1` had a solubility (kinetic) of no less than 208 µg/mL. Moreover, the Papp in data set [4] turned out to be 11 ×10⁻⁶ cm/s.
For the molecule `Cc1nc(-c2ccccc2OCc2ccccc2)n[nH]1`, the values for the IC50 in data set [1] and in data set [2] were greater than 50.1 µM and 7.94 µM, respectively. The Ratio pIC50 in the data set listed under Homo sapiens was greater than 6. The molecule further yielded a solubility (kinetic) in data set [3] of no less than 70 µg/mL.

Source of the values: ChEMBL document CHEMBL4834404, “Template-Hopping Approach Leads to Potent, Selective, and Highly Soluble Bromo and Extraterminal Domain (BET) Second Bromodomain (BD2) Inhibitors” (J Med Chem, 2021).
